The results in this text go back to US20220096515A1, “Methods and Formulations for Preventing Neurological or Psychiatric Disorders” (Huntington Medical Research Institutes, priority 2020, published 2022).

Format in all cases: in vivo, mouse
Data set [1] has as its system Gabrb3^fl/fl littermates. As to the kind of experiment: Prenatal NAD+ treatment, H&E of MGE in Gabrb3^fl/fl littermates. Particulars: NAD^+-treated Gabrb3^fl/fl littermates. As to the method:
Histology, immunohistochemistry, and microscopic analysis: Paraffin immunohistochemistry (IHC) was performed on embryonic brains only while frozen section IHC was used on both embryonic and adult brains. Briefly, for paraffin IHC-E18 brains were fixed in zinc fixative (BD Biosciences PharMingen) for 24 h and processed for paraffin histology. Histological stainings with hematoxylin (Vector Laboratories) and eosin (Sigma) were performed on 8 μm coronal sections. Lectin histochemistry (with biotinylated isolectin B4, 1:50, Sigma) as well as IHC was performed on 20 μm sections. Primary antibodies used for IHC were as follows: anti-PHH3 (1:200, Millipore) and anti-NKX2.1, (1:50; Sigma) followed by secondary detection with AlexaFluor conjugates (Invitrogen). DAPI (Vector Laboratories) was used to label nuclei. For frozen section IHC, E18 and P90 brains were removed, fixed in 4% PFA for 24 hours, cryo-protected in sucrose gradient, embedded into OCT medium for frozen blocks; sectioned at 40 μm on a cryostat and immunostained with anti-GABA (1:80, Sigma) and anti -PROX1 (1:80, Millipore) antibodies. Twenty sections from each brain were used for IHC and histology experiments. Uniform penetration of antibodies or stains throughout the section was ascertained and quality of the staining in each digital section was examined. […]

Data set [2] has as its system GAD65-GFP knock in mice. Put plainly: E12-E17 NAD+ injection paradigm in GAD65-GFP knock in mice. Particulars: E18, vs NAD^+-untreated group. The text has this: Animals: Timed pregnant CD1 mice were purchased from Charles River laboratories, MA. Colonies of GAD65-GFP mice were maintained in our institutional animal facility. Tie2-cre mice and Gabrb3 floxed (Gabrb3^fl/fl) mice were obtained from Jackson Labs. The Tie2-cre transgene is known for uniform expression of cre-recombinase in endothelial cells during embryogenesis and adulthood. To selectively delete Gabrb3 in endothelial cells, Tie2-cre transgenic mice (males) were crossed to Gabrb3^fl/fl mice (females) to generate Tie2-cre; Gabrb3^fl/+ mice (males). These were further crossed with Gabrb3^fl/fl mice (females) to obtain the Gabrb3 conditional knock-outs (Tie2-cre; Gabrb3^fl/fl mice). The day of plug discovery was designated embryonic day 0 (E0). Animal experiments were in full compliance with the NIH Guide for Care and Use of Laboratory Animals and were approved by the HMRI and McLean Institutional Animal Care Committees.
To test if the prenatal NAD^+ treatment was able to influence GABAergic neuronal migration, an in vitro neuronal migration assay was performed (FIG. 6M), after the in vivo NAD^+ treatment paradigm (E12-E17). […] This aspect was further explored by using the E12-E17 NAD^+ injection paradigm in GAD65-GFP knock in mice (FIGS. 6P-6T). Images of GFP^+ cells that had entered the dorsal telencephalon at E18 were collected and analyzed. […]

Data set [3] relates to Gabrb3^ECKO mice. As to the kind of experiment: Tail suspension test. To be noted: vs saline-treated Gabrb3^ECKO mice. As to the method: (§1) Behavioral Experiments: Mice were housed in our animal facility with a 12-hour light cycle with ad libitum access to food and water. Offspring stayed with their mothers until weaning at PND 21 after which males and females were separated. Before all behavioral testing, mice were acclimated to the testing room for 1 hour. Behavioral assays were performed according to established protocols referenced here: self-grooming, light-dark box, tail suspension test, Y-maze, open field locomotion activity, three chamber social interaction test and nest building with nestlets and with shredded paper. Both males and females were used for all behavioral assays. Experimenters scoring behaviors were blinded to the genotypes and treatment. Sample sizes for each assay are noted in figure legends.
Anxiety was next assessed with the classic light-dark transition test which triggers a struggle between the desires to explore a novel environment versus natural aversion of a brightly illuminated open space. […] The Y maze spontaneous alternation test was used to evaluate for spatial learning and memory in the three groups of mice. After introduction to the center of the maze, the mice were given free access to all three arms. […] The total number of arm entries and the sequence of entries are recorded in order to calculate the percentage of alternation. […]

Data set [4] relates to Gabrb3^ECKO mice. Put plainly: Three-chamber social communication test. As to the method: as §1
This is indicative of rescue of social motivation, memory and novelty exploration in NAD^+-treated Gabrb3^ECKO mice (FIG. 14L).

The subject of data set [5] is Gabrb3^fl/fl mice. As to the kind of experiment: Nesting and grooming behavior of NAD+ treated Gabrb3^fl/fl mice. To be noted: NAD+ vs saline treated Gabrb3^fl/fl mice. As to the method:
Certain embodiments treat an individual at a dosage of approximately 10 mg/kg—for example, for a 60-70 kg human, a dosage would be approximately 600-700 mg. Some embodiments treat at a dosage higher than 10 mg/kg, such as up to 40 mg/kg. In many embodiments excess NAD+ may be removed from the body without deleterious effects. FIGS. 1D-1F illustrate exemplary data showing no deleterious effects from treating wildtype mice with NAD+. […] As excess NAD+ may be removed without significant effect to a treated individual, some embodiments treat a person prophylactically.
as §1

Take `NC(=O)c1ccc[n+]([C@@H]2O[C@H](COP(=O)([O-])OP(=O)(O)OC[C@H]3O[C@@H](n4cnc5c(N)ncnc54)[C@H](O)[C@@H]3O)[C@@H](O)[C@H]2O)c1` [NAD^+]: the “cellular arrangement in MGE (H&E)” value in data set [1] is “the same distinct cellular arrangement in the MGE”. For the same molecule, the “percentage of GFP^+ cells in dorsal telencephalon” value in data set [2] is “significant increase in the percentage of GFP^+ cells”. In addition, in data set [3], the immobility times entry is listed as “significantly lower immobility times”. Also, the “sociability: stranger mouse vs inanimate object” value in data set [4] (sociability phase) is listed as “interacted with the stranger mouse for a significantly longer duration than with the inanimate object”. Further, in data set [4] (social novelty phase), the “social novelty: stranger 2 vs familiar stranger 1” value is recorded as “marked preference for stranger 2”. The grooming behavior entry in data set [5] is “no significant change in grooming behavior”. For the same molecule, the nesting behavior entry in data set [5] (untorn nestlet and shredded paper) is “no significant difference in nesting behavior”.
